# Measured values as given in patent US9365604B2, “Oligomer-nucleoside phosphate conjugates” (NEKTAR THERAPEUTICS, priority 2007, dated 2016).
# Read-outs that look alike come from different tables or passages of the source.
# How the values were obtained:
# [1] = tested on: DU145; assay: Sulforhodamine B (SRB) growth inhibition assay; assay type: cell-based, Human; conditions: for ratio vs flox (GI50) DU145: GI50 of conjugate vs floxuridine; for GI50: cells exposed for 24 h, read-out: GI50 values (μM) DU145
# Experimental: (§1) The aim was to determine the GI50 values for PEG-floxuridine conjugates against a panel of cell lines, and based on previous data from Xenograft studies. […] The test articles were solubilized in dimethylsulfoxide and were tested at four different molar (M) concentrations; 10^−4, 10^−5, 10^−6, M. GI50 (the concentration needed to reduce the growth of treated cells to half that of untreated control cells) was calculated for each condition ([(Ti−Tz)/(C-Tz)]×100=50, where Ti, Tz, and C refer to absorbance values obtained from each tested concentration, time zero, and control treatment, respectively).
# as §1, with “The objective” for “The aim”, “the IC50” for “the GI50”, “for PEG-gemcitabine” for “for PEG-floxuridine”, “in dimethyl sulfoxide” for “in dimethylsulfoxide”, “10^−6, 10^−7” for “10^−6,”, “condition ([(Ti−Tz)/(C−Tz)]×100=50,” for “condition ([(Ti−Tz)/(C-Tz)]×100=50,”
# [2] = tested on: A2780; assay: Sulforhodamine B (SRB) growth inhibition assay; assay type: cell-based, Human; conditions: for ratio vs flox (GI50) A2780: GI50 of conjugate vs floxuridine; for GI50: SRB assay, cells exposed for 24 h, read-out: GI50 values (μM) A2780
# Experimental: (§2) In Vitro Screening of PEG-Gemcitabine Monophosphate in Selected Human Cancer Cell Lines
# as §1
# as §1, with “The objective” for “The aim”, “the IC50” for “the GI50”, “for PEG-gemcitabine” for “for PEG-floxuridine”, “in dimethyl sulfoxide” for “in dimethylsulfoxide”, “10^−6, 10^−7” for “10^−6,”, “condition ([(Ti−Tz)/(C−Tz)]×100=50,” for “condition ([(Ti−Tz)/(C-Tz)]×100=50,”
# [3] = tested on: HT29; assay: Sulforhodamine B (SRB) growth inhibition assay; assay type: cell-based, Human; conditions: for ratio vs flox (GI50) HT29: GI50 of conjugate vs floxuridine; for GI50: cells exposed for 24 h, read-out: GI50 values (μM) HT29
# Experimental: as §2, §1
# as §1, with “The objective” for “The aim”, “the IC50” for “the GI50”, “for PEG-gemcitabine” for “for PEG-floxuridine”, “in dimethyl sulfoxide” for “in dimethylsulfoxide”, “10^−6, 10^−7” for “10^−6,”, “condition ([(Ti−Tz)/(C−Tz)]×100=50,” for “condition ([(Ti−Tz)/(C-Tz)]×100=50,”
# [4] = tested on: Hop62; assay: Sulforhodamine B (SRB) growth inhibition assay; assay type: cell-based, Human; conditions: for ratio vs flox (GI50) Hop62: GI50 of conjugate vs floxuridine; for GI50: cells exposed for 24 h, read-out: GI50 values (μM) Hop62
# Experimental: as §2, §1
# as §1, with “The objective” for “The aim”, “the IC50” for “the GI50”, “for PEG-gemcitabine” for “for PEG-floxuridine”, “in dimethyl sulfoxide” for “in dimethylsulfoxide”, “10^−6, 10^−7” for “10^−6,”, “condition ([(Ti−Tz)/(C−Tz)]×100=50,” for “condition ([(Ti−Tz)/(C-Tz)]×100=50,”
# [5] = tested on: MCF7; assay: Sulforhodamine B (SRB) growth inhibition assay; assay type: cell-based, Human; conditions: for ratio vs flox (GI50) MCF7: GI50 of conjugate vs floxuridine; for GI50: SRB assay, cells exposed for 24 h, read-out: GI50 values (μM) MCF7
# Experimental: as §2, §1
# as §1, with “The objective” for “The aim”, “the IC50” for “the GI50”, “for PEG-gemcitabine” for “for PEG-floxuridine”, “in dimethyl sulfoxide” for “in dimethylsulfoxide”, “10^−6, 10^−7” for “10^−6,”, “condition ([(Ti−Tz)/(C−Tz)]×100=50,” for “condition ([(Ti−Tz)/(C-Tz)]×100=50,”
# [6] = tested on: HCT-116; assay: In vitro cytotoxicity assay (CellTiter-Glo); assay type: cell-based; conditions: for IC50: 72 h exposure, CellTiter-Glo
# Experimental: (§3) The objective of these studies were to determine the IC50 values for PEG-floxuridine conjugates against floxuridine-resistant cell lines based on data from previous Xenograft studies. The cells were exposed for 72 h, and cell viability assessed by using the CellTiter-Glo assay.
# (§4) The objective of these studies was to determine the IC50 values for PEG-gemcitabine conjugates against gemcitabine-resistant cell lines based on data from previous Xenograft studies. The cells were exposed for 72 h, and cell viability assessed by using the CellTiter-Glo assay.
# [7] = tested on: HT-29; assay: In vitro cytotoxicity assay (CellTiter-Glo); assay type: cell-based; conditions: for IC50: 72 h exposure, CellTiter-Glo
# Experimental: as §3, §4
# [8] = tested on: MIA PaCa-2; assay: In vitro cytotoxicity assay (CellTiter-Glo); assay type: cell-based; conditions: for IC50: 72 h exposure, CellTiter-Glo
# Experimental: as §3, §4
# [9] = tested on: CAKI-1; assay: In vitro cytotoxicity assay (CellTiter-Glo); assay type: cell-based; conditions: for IC50: 72 h exposure, CellTiter-Glo
# [10] = Stability in cell culture medium (floxuridine release, HPLC); assay type: in vitro ADME
# Experimental: The frozen samples were thawed and homogenized by vortex mixing. A 10 μl aliquot of the sample was transferred into a clean EPPENDORF tube. Samples were diluted with 190 μl methanol: water mixture (1:1, v/v). The tubes were vortex mixed and centrifuged for 10 min. The supernatant was transferred to HPLC vials and 10 μl volume of the sample was injected onto the HPLC system.
# [11] = tested on: Caco-2 cells
# Excerpt: (§6) Bi-Directional Permeability of PEG-Floxuridine Conjugates in Caco-2 and MDCK Cells
# [12] = tested on: MDCK cells
# Excerpt: as §6
# [13] = in vitro; conditions: human, Caco-2
# Excerpt: as §6
# [14] = in vitro; conditions: dog, MDCK
# Excerpt: as §6
# [15] = Bi-directional permeability in MDCK cells; conditions: dog
# Excerpt: as §6
# [16] = Bi-directional permeability in Caco-2 cells; conditions: human
# Excerpt: as §6
# [17] = tested on: COLO205; assay: Sulforhodamine B (SRB) growth inhibition assay; assay type: cell-based, Human; conditions: COLO205; SRB assay, cells exposed for 24 h; read-out: GI50 values (μM) COLO205
# Experimental: as §2, §1
# as §1, with “The objective” for “The aim”, “the IC50” for “the GI50”, “for PEG-gemcitabine” for “for PEG-floxuridine”, “in dimethyl sulfoxide” for “in dimethylsulfoxide”, “10^−6, 10^−7” for “10^−6,”, “condition ([(Ti−Tz)/(C−Tz)]×100=50,” for “condition ([(Ti−Tz)/(C-Tz)]×100=50,”
# [18] = tested on: HCT15; assay: Sulforhodamine B (SRB) growth inhibition assay; assay type: cell-based, Human; conditions: SRB assay, cells exposed for 24 h, read-out: GI50 values (μM) HCT15
# Experimental: as §2, §1
# as §1, with “The objective” for “The aim”, “the IC50” for “the GI50”, “for PEG-gemcitabine” for “for PEG-floxuridine”, “in dimethyl sulfoxide” for “in dimethylsulfoxide”, “10^−6, 10^−7” for “10^−6,”, “condition ([(Ti−Tz)/(C−Tz)]×100=50,” for “condition ([(Ti−Tz)/(C-Tz)]×100=50,”
# [19] = tested on: NCI/ADR-RES; assay: Sulforhodamine B (SRB) growth inhibition assay; assay type: cell-based, Human; conditions: cells exposed for 24 h, read-out: GI50 values (μM) NCI/ADR-RES
# Experimental: as §2
# (§5) The aim was to determine the GI50 values for PEG-floxuridine conjugates against a panel of cell lines, and based on previous data from Xenograft studies. The cells were exposed for 24 h, and cell viability assessed by using the Sulphorhodamine (SRB) assay. The test articles were solubilized in dimethylsulfoxide and were tested at four different molar (M) concentrations; 10^−4, 10^−5, 10^−6, M. GI50 (the concentration needed to reduce the growth of treated cells to half that of untreated control cells) was calculated for each condition ([(Ti−Tz)/(C-Tz)]×100=50, where Ti, Tz, and C refer to absorbance values obtained from each tested concentration, time zero, and control treatment, respectively).
# as §5, with “The objective” for “The aim”, “the IC50” for “the GI50”, “for PEG-gemcitabine” for “for PEG-floxuridine”, “in dimethyl sulfoxide” for “in dimethylsulfoxide”, “10^−6, 10^−7” for “10^−6,”, “condition ([(Ti−Tz)/(C−Tz)]×100=50,” for “condition ([(Ti−Tz)/(C-Tz)]×100=50,”
smiles,measurement,setting,value
"COCCOCCOCCOCCOCCOCCOCCOP(=O)(OCCOCCOCCOCCOCCOCCOCCOC)OC[C@H]1O[C@@H](n2cc(F)c(=O)[nH]c2=O)C[C@@H]1O [Floxuridine Di (mPEG7), 5′-floxuridine di-methoxy hepta(ethylene glycol) phosphate]",ratio vs flox (GI50) DU145,[1],4
same,GI50,[1]; SRB assay,> 100 µM
same,ratio vs flox (GI50) A2780,[2],1538
same,GI50,[2],> 100 µM
same,ratio vs flox (GI50) HT29,[3],4
same,GI50,[3]; SRB assay,> 100 µM
same,ratio vs flox (GI50) Hop62,[4],417
same,GI50,[4]; SRB assay,> 100 µM
same,ratio vs flox (GI50) MCF7,[5],667
same,GI50,[5],> 100 µM
"O=c1[nH]c(=O)n([C@H]2C[C@H](O)[C@@H](CO)O2)cc1F [Floxuridine, reference compound]",GI50,"[1]; Homo sapiens, DU-145, SRB assay",26 µM
same,GI50,[2]; Homo sapiens,0.065 µM
same,GI50,"[3]; Homo sapiens, HT-29, SRB assay",25 µM
same,GI50,"[4]; Homo sapiens, HOP-62, SRB assay",0.24 µM
same,GI50,[5]; Homo sapiens,0.15 µM
same,IC50,[6]; Homo sapiens,32 nM
same,IC50,[7]; Homo sapiens,90 nM
same,IC50,[8]; Homo sapiens,54 nM
same,IC50,[9]; Homo sapiens,110 nM
same,Peak Area of measured floxuridine,"[10]; HPLC, supernatant of MCF-7 culture after 48 h with test article",119819
same,concentration of floxuridine estimated in culture medium,[10]; after cells were treated with test article,24.44
same,Calculated Concentration (μg/mL) of floxuridine,"[10]; diluted sample (10 μL diluted to 200 μL), MCF-7 culture supernatant, 48 h",1.211 µg/mL
same,Total Calculated Concentration in the sample using dilution factor,"[10]; floxuridine in MCF-7 culture supernatant, 48 h, nominal 24.6 μg/mL",24.22
same,Significant efflux,[11],No
same,permeability across Caco-2 monolayers (in words),[11],poor permeability
same,Significant efflux,[12],No
same,permeability through MDCK monolayers (in words),[12],poor permeability
same,Papp A→B,[13],0.75 ×10⁻⁶ cm/s
same,Papp B→A,[13],1.47 ×10⁻⁶ cm/s
same,efflux ratio,[13],2
same,Papp A→B,[14],< 2.46 ×10⁻⁶ cm/s
same,Papp B→A,[14],< 2.7 ×10⁻⁶ cm/s
same,recovery,[15]; percent recovery A -> B,50%
same,recovery,[15]; percent recovery B -> A,82%
same,recovery,"[16]; Caco-2, percent recovery A -> B",75%
same,recovery,"[16]; Caco-2, percent recovery B -> A",91%
"COCCOCCOCCOP(=O)(O)OC[C@H]1O[C@@H](n2cc(F)c(=O)[nH]c2=O)C[C@@H]1O [Floxuridine Mono (mPEG3), 5′-floxuridine methoxy tri(ethylene glycol) phosphate]",ratio vs flox (GI50) DU145,[1],0.005
same,GI50,[1]; SRB assay,0.12 µM
same,ratio vs flox (GI50) A2780,[2],32
same,GI50,[2],2.1 µM
same,GI50,[17],1.8 µM
same,GI50,[18],32 µM
same,ratio vs flox (GI50) HT29,[3],4
same,GI50,[3]; SRB assay,> 100 µM
same,ratio vs flox (GI50) Hop62,[4],417
same,GI50,[4]; SRB assay,> 100 µM
same,ratio vs flox (GI50) MCF7,[5],0.7
same,GI50,[5],0.11 µM
same,GI50,[19],< 0.1 µM
same,Ratio vs floxuridine (IC50) HCT-116,[6],2
same,IC50,[6],56 nM
same,Ratio vs floxuridine (IC50) HT-29,[7],1
same,IC50,[7],87 nM
same,Ratio vs floxuridine (IC50) MIA PaCa-2,[8],1
same,IC50,[8],64 nM
same,Ratio vs floxuridine (IC50) CAKI-1,[9],1
same,IC50,[9],145 nM
same,Papp A -> B,[11],<0.19 10^−6 cm/s
same,Papp B -> A,[11],<0.25 10^−6 cm/s
same,Significant efflux,[11],No
same,percent recovery A -> B,[11],96%
same,percent recovery B -> A,[11],94%
same,Papp A -> B,[12],<0.06 10^−6 cm/s
same,Papp B -> A,[12],<0.07 10^−6 cm/s
same,Significant efflux,[12],No
same,percent recovery A -> B,[12],98%
same,percent recovery B -> A,[12],98%
